Test results reported in patent US11932850B2, “Cancer chemoprevention with STAT3 blockers” (Jill M. Siegfried, LLC, priority 2018, dated 2024).

Tests used:
[1] = biological target: T1, pSTAT3-ubiquitin complexes in H1975 cells (Homo sapiens, UniProt P40763); test: p-STAT3 immunoprecipitation and ubiquitin immunoblot; format: cell-based; settings: H1975, 100 nM, 24 hr post-transfection
T1 construct: Post-transfection with either 100 nM CS3D or CS3M, H1975 were lysed in IP lysis buffer; endogenous in cells; host or cells: H1975
T1 sequence (P40763 2-770 limits assumed, one chain of several): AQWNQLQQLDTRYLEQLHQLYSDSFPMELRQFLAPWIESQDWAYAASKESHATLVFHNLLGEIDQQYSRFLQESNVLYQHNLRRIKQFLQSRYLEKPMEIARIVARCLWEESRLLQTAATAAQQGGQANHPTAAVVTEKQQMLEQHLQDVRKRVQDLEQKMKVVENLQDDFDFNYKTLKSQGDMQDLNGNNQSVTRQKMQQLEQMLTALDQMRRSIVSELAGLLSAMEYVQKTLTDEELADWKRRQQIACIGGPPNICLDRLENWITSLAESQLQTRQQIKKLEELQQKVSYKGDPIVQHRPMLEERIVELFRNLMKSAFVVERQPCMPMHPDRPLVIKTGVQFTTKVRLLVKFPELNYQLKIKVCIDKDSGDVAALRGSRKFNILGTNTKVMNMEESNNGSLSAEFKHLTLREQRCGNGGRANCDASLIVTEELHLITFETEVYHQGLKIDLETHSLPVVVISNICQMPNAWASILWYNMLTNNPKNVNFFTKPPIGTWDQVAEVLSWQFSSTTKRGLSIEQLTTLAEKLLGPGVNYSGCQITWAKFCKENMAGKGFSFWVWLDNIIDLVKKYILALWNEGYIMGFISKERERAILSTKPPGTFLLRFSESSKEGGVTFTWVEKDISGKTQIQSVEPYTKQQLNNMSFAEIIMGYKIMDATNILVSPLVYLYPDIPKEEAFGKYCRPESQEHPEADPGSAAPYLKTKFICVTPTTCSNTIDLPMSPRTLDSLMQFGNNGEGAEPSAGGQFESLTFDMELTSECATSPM

[2] = test system: c-Myc in H1975-derived tumors; test: c-Myc expression in H1975 xenograft tumors (Western blot); format: in vivo, nude mice; settings: H1975 xenograft tumors, range among individual tumors
Procedure: FIGS. 7C and 7D show c-Myc is suppressed after CS3D treatment in vivo. At the end of the treatments, tumors were harvested, whole cell lysates were prepared and RNA extracted for target gene analysis by Western blotting and RT-qPCR GAPDH protein was used as internal loading control for immunoblotting. CS3D treated tumors (C4, C5, and C6) from separate animals show a decrease in c-Myc expression level relative to the CS3M-treated group (C1, C2, and C3) in 201T. […] Data are shown as mean+/−SEM.
To determine how CS3D blocks NSCLC growth, Western blot, qRT-PCR, and immunohistochemical analysis were performed to determine expression of c-Myc in residual tumors. These analyses identified a substantial downregulation of c-Myc protein (FIGS. 7C and 7D) and mRNA levels (FIG. 7E) in individual CS3D-treated tumors relative to CS3M-treated tumors in both 201T and H1975 xenografts. Some variability in protein levels among individual xenografts was observed (FIGS. 7C and 7D); the densitometry units for c-Myc protein after normalizing for GAPDH levels ranged from 0.11-0.16 units for CS3D-treated xenografts and 0.25-0.46 units for CS3M-treated tumors in H1975. Similarly, in 201T-derived tumors these measurements ranged from 0.015 to 0.51 units for CS3D and 0.28 to 0.97 units for CS3M. Even with this variability, the effect across the groups in both cell lines was significant (P<0.05 for H1975 and P<0.042 for 201T xenografts), with a mean decrease of 65% and 70%, respectively.

[3] = test system: cleaved caspase-3 in H1975 xenografts; test: IHC of cleaved caspase-3 in H1975 xenografts at end of treatment; format: in vivo, nude mice; settings: after last day of treatment (day 14)
Description: For mRNA levels in tumor lysates, CS3D produced a 60-70% reduction of c-Myc gene expression relative to GAPDH compared to CS3M (FIG. 7E). […] Some cleaved caspase 3 staining was localized in nuclei, where caspase-3 is known to be active. Some caspase 3 staining was also evident in fibroblasts.
Immunohistochemical analysis: Tumors were excised for immunohistochemical (IHC) staining; 5-μm (micron) sections were cut from formalin-fixed paraffin-embedded tissue blocks, deparaffinized and rehydrated using successive washes of xylene followed by ethanol. Antigen retrieval was performed in a microwave oven (for 20 minutes) in an unmasking solution containing sodium citrate buffer followed by peroxidase blocking in 3% hydrogen peroxide. The sections were incubated in ABC blocking buffer (Vector laboratories Inc, Burlingame, California) for 1 hour at room temperature. Sections were then stained with H&E (hematoxylin and eosin) or subjected to sequential incubations with different primary antibodies and peroxidase-conjugated goat anti-rabbit secondary antibodies. […] Staining was graded as low (<30% positive cells per field, scored as 1), moderate (30-60% positive cells per field, scored as 2) or high (>60% positive cells per field, scored as 3).

[4] = test system: Ki-67, p-STAT3, NF-κB in H1975 xenografts; test: IHC of H1975 xenografts after 5 daily iv injections; format: in vivo, nude mice; settings: H1975 xenografts
Procedure: Because tumors treated for several weeks with the STAT3 decoy were largely composed of debris (as illustrated in FIG. 11), xenografts were examined after only 5 daily tail vein injections to determine what cellular changes were induced prior to collapse of the intracellular tumor structure. […] Tumors derived from H1975 xenografs were analyzed by immunohistochemical staining for p-STAT3 after 5 daily iv injections of either STAT3 decoy or mutant decoy. […] This effect is quantified in FIG. 9B.
Images were captured at 40× magnification. A shift from 41% of cells was observed and scored as high-grade staining with CS3M treatment to 13% with high-grade staining in the presence of CS3D, with corresponding increases in moderate- and low-grade staining in the STAT3 decoy treated group (FIG. 12B). […] Bright field images were captured at 40× magnification. Frequency of high-grade staining for p-STAT3 differed between CS3D and CS3M treatment groups (23% in CS3D-treated and 51% in CS3M treated, with corresponding increase in low-grade staining in presence of the active decoy (FIG. 9B). Significant degradation of p-STAT3 protein was detected by IHC in tumors was observed after treatment with CS3D. Percent of high staining fields was reduced from 48% to 22% while percent of fields with low staining increased, P<0.001 (FIG. 9B).
Immunohistochemical analysis: Tumors were excised for immunohistochemical (IHC) staining; 5-μm (micron) sections were cut from formalin-fixed paraffin-embedded tissue blocks, deparaffinized and rehydrated using successive washes of xylene followed by ethanol. Antigen retrieval was performed in a microwave oven (for 20 minutes) in an unmasking solution containing sodium citrate buffer followed by peroxidase blocking in 3% hydrogen peroxide. The sections were incubated in ABC blocking buffer (Vector laboratories Inc, Burlingame, California) for 1 hour at room temperature. Sections were then stained with H&E (hematoxylin and eosin) or subjected to sequential incubations with different primary antibodies and peroxidase-conjugated goat anti-rabbit secondary antibodies. The following primary antibodies were used (at the indicated dilutions): cleaved caspase-3 (#9664, Cell Signaling, 1:300), p-STAT3 (#9145, Cell Signaling, 1:400), Ki67 (#ab15580, Abcam, 1:1000). Sections were developed with DAB and counterstained with hematoxylin. Bright field microscopy was performed using Leica DM 4000 B LED microscope and images were captured at 20× and 40× magnification using LASv4.7 software. IHC analysis was done as a blinded study with 100 images from each treatment group graded as low, moderate, or high. Staining was graded as low (<30% positive cells per field, scored as 1), moderate (30-60% positive cells per field, scored as 2) or high (>60% positive cells per field, scored as 3).

[5] = test system: M1 macrophages, M2 macrophages, MDSCs; test: Flow cytometry of immune cells isolated from lungs of NNK mice; format: in vivo; settings: NNK 4 weeks then 1 week of drug administration
Description: STAT3 also plays a central role in immune evasion. STAT3 specifically orchestrates immunosuppression by promoting M2 macrophage and myeloid-derived suppressor cells (MDSCs) activity while suppressing M1 macrophage function [Su et al. Int. J. Mol. Science 19: pll:E1803, 2018]. Thus STAT3 inhibition by CS3D should favor an antitumor immune response by enhancing M1 macrophage activity.
Lungs from mice were digested with RPMI media containing collagenase and DNase to obtained single cell suspension. The cells were counted and 1×10^6 cells were staining with fluorescent labeled CD45, CD11b, MHC II, Ly6C and F4/80. The labeled cells were gated and data acquired on LSR fortessa (BD Biosciences) and further analysed by Flowjo.

STAT3 = STAT3 (Homo sapiens, UniProt P40763); settings: Leong et al., 2003; cited from earlier work
Sequence of STAT3 (P40763 whole entry, species assumed): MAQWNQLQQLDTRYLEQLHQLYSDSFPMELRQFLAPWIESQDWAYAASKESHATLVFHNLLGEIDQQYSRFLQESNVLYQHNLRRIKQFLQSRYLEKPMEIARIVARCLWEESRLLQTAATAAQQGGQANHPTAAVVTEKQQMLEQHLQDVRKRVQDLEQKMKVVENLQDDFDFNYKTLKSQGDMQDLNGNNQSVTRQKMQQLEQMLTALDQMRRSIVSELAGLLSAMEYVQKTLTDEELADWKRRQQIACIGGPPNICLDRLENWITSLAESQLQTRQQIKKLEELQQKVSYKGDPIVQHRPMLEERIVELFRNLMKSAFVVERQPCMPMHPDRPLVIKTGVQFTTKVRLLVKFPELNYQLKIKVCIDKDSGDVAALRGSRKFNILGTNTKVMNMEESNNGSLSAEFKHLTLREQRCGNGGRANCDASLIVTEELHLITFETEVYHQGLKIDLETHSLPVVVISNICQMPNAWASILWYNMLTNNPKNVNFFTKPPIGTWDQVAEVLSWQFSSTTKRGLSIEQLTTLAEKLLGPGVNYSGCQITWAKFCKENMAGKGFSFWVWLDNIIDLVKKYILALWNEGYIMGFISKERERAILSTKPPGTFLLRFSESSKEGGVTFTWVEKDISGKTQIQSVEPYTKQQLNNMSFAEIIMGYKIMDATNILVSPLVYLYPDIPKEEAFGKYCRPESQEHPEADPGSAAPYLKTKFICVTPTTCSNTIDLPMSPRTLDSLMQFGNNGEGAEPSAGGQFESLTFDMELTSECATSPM

CS3M: mutant inactive control of CS3D, T-A base pair replacing G-C base pair at position 9 (SEQ ID NO. 6); unable to bind STAT3 (GATTTAAGGGAAATGCSCATTTCCC; cyclic decoy, mutant control, further chemistry not given here) [reference compound]
ratio of pSTAT3-ubiquitin complex to STAT3 (densitometry) [1]: 0.74 | c-Myc protein densitometry normalized for GAPDH [2]: 0.25-0.46 units | fields scoring high level of cleaved caspase-3 [3]: 10% | Ki-67 high-grade staining ([4]; 5 daily injections): 41% | frequency of high-grade staining for p-STAT3 ([4]; 5 daily iv injections): 51% | percent of high staining fields for p-STAT3 ([4]; second statement in b134 (FIG. 9B)): 48% | M2 macrophages [5]: 18.3% | MDSCs [5]: 4.56% | binding to STAT3 (STAT3): unable to bind STAT3
